Source: article PMC11238198, “Rejuvenation of Meropenem by Conjugation with Tilapia Piscidin-4 Peptide Targeting NDM-1 Escherichia coli” (ACS Omega, 2024)
No end group written: not given here.

What was measured:
A. baumannii 2982 = assay: microbe, parasite or virus in culture; format: cell-based, Acinetobacter baumannii; conditions: Mueller Hinton broth, 50 μL of 1 × 10^6 CFU/mL + 50 μL sample, 37 °C, 16–20 h, three independent replicates, each in triplicate
Method: (§1) E. coli 8–8, A. baumannii 2982, and S. aureus 13–1 were procured from the Bioresource Collection and Research Center (BCRC), Taiwan. NDM-1-positive E. coli BAA 2452 was procured from ATCC. All strains were cultured in Mueller Hinton broth (MHB). The concentration of bacteria was identified by the absorbance at OD600. The colony forming units (CFU) corresponding to different OD600 values were identified by plating on the Mueller Hinton agar (MHA) plate.
(§2) Antibacterial analysis was performed according to a standard protocol.[32] Overnight cultures of test bacteria were prepared and freshly subcultured. Briefly, 50 μL of 1 × 10^6 CFU/mL bacterial cells was treated with 50 μL of peptide or conjugate at different concentrations in a 96-well plate. The plates were incubated at 37 °C for 16–20 h. The lowest concentration of peptide/conjugate showing no growth was considered the minimum inhibitory concentration (MIC). To identify the MIC (MBC), 5 μL of incubated suspensions from growth-free wells was plated onto MHA and incubated overnight at 37 °C. The lowest concentration of peptide/conjugate showing no growth on the MHA plate was considered to be the MBC. The experiments were performed in three independent replicates, each in triplicate.

NDM E. coli BAA 2452 [1] = assay: microbe, parasite or virus in culture; format: cell-based; conditions: Escherichia coli, BAA2452; 5 μL from growth-free wells plated onto MHA, overnight at 37 °C; three independent replicates, each in triplicate
Method: as §1, §2

S. aureus 13–1 = assay: microbe, parasite or virus in culture; format: cell-based; conditions: Mueller Hinton broth, 50 μL of 1 × 10^6 CFU/mL + 50 μL sample, 37 °C, 16–20 h, three independent replicates, each in triplicate
Method: as §1, §2

NDM E. coli BAA 2452 [2] = assay: microbe, parasite or virus in culture; format: cell-based, Escherichia coli; conditions: for MIC: NDM-1-positive MDR strain, Mueller Hinton broth, 37 °C, 16–20 h, three independent replicates, each in triplicate
Method: as §1, §2

E. coli 8–8 = format: cell-based, Escherichia coli; conditions: Mueller Hinton broth, 50 μL of 1 × 10^6 CFU/mL + 50 μL sample, 37 °C, 16–20 h; three independent replicates, each in triplicate
Method: as §1, §2

RBCs = format: cell-based, Human
Method: Human RBCs were used to examine the hemolytic profiles of the peptides and conjugates. The RBCs were washed three times with PBS and centrifuged at 1000g. Then, 50 μL of a 2% RBC suspension was added to 50 μL of peptide/conjugate solution at different concentrations. The mixture was incubated at 37 °C for 1 h. The incubated mixture was centrifuged, and hemolysis was assessed by measuring the absorbance of the supernatant at 540 nm.

CCD966-SK cells = format: cell-based, human; conditions: 16 µM
Method: RAW 264.7 murine macrophage cells, CCD966-SK human fibroblast cells, and HaCaT human keratinocytes were procured from BCRC, Taiwan. RAW264.7 and HaCaT cells were cultivated in DMEM supplemented with 10% FBS, streptomycin (100 μg/mL), and penicillin (100 U/mL) at 37 °C and 5% CO2. CCD966-SK were cultivated in MEM with 0.1 mM nonessential amino acids with 10% FBS, streptomycin (100 μg/mL), and penicillin (100 U/mL) at 37 °C and 5% CO2. In vitro cytotoxicity of the TP4-Meropenem conjugates was evaluated with an alamarBlue assay. Briefly, 5 × 10^4 RAW264.7 cells/well or 5 × 10^3 CCD966-SK or 1 × 10^4 HaCaT cells/well were seeded in 96-well plates for 24 h and then treated with different concentrations of peptide/conjugate. Controls included 0.1% Triton-X-treated cells and cells in a culture medium. After 24 h of treatment, the cells were washed and incubated with 90 μL of DMEM and 10 μL of alamarBlue reagent for 2 h. The absorbances at 570 and 600 nm were measured using a Spectra Max i3 (Molecular Devices, CA). Cell viability was calculated using the formula as described in the protocol. The LDH assay was carried out using the cytotoxicity detection kit PLUS according to a previously described protocol.[33]

Compound: C[C@@H](O)[C@H]1C(=O)N2C(C(=O)O)=C(S[C@@H]3CN[C@H](C(=O)N(C)C)C3)[C@H](C)[C@H]12 [Meropenem]
- MIC (A. baumannii 2982; Acinetobacter baumannii, 2982, read-out: minimum inhibitory concentration (MIC) A. baumannii 2982): > 32 µM
- MBC (NDM E. coli BAA 2452 [1]): > 64 µM
- MIC (S. aureus 13–1; Staphylococcus aureus, read-out: minimum inhibitory concentration (MIC) S. aureus 13–1): 0.25 µM
- MIC (NDM E. coli BAA 2452 [2]; Escherichia coli, BAA2452): > 64 µM
- MIC (NDM E. coli BAA 2452 [2]): >64 µM

Compound: D-Tilapia piscidin 4 [D-TP4]
- minimum inhibitory concentration (MIC) E. coli 8–8 (E. coli 8–8): 2 to 4 µM
- minimum inhibitory concentration (MIC) A. baumannii 2982 (A. baumannii 2982): 2 to 4 µM
- minimum inhibitory concentration (MIC) S. aureus 13–1 (S. aureus 13–1): 2 to 4 µM

Compound: FIHHIIGGLFSAGKAIHRLIRRRRR [L-TP4, Tilapia piscidin-4] [listing 1 of 2 here]
- MIC NDM E. coli BAA 2452 (NDM E. coli BAA 2452 [2]; BAA 2452): 4 to 8 µM

Compound: FIHHIIGGLFSAGKAIHRLIRRRRR [L-TP4, Tilapia piscidin-4] [listing 2 of 2 here]
- hemolysis (% of the total cells) at 4 μM (RBCs; 4 µM): 44.4 ± 4.3%
- hemolysis (% of the total cells) at 8 μM (RBCs; 8 µM): 84.1 ± 6.2%

Compound: FIHHIIGGLFSAGKAIHRLIRRRRR [TP4, Tilapia piscidin-4]
- cell viability, CCD966-SK (CCD966-SK cells): 23.9 ± 1.2%
